One assay concerns the target CRBN/DDB1 (Homo sapiens (Human), UniProt Q96SW2). Type of assay: binding. Particulars: His tagged CRBN+DDB1, Cy5-labeled Thalidomide probe, one hour; read-out: CRBN HTRF IC50. Here is the method: The binding potency was determined using HTRF assay technology (Perkin Elmer). Compounds were serially diluted in DMSO and […] volume was transferred to white 384-well plate.
In general terms: TR-FRET usually uses a lanthanide donor and a delayed reading to cut background.

Another assay deals with ER in MCF-7 cells (Homo sapiens (Human), UniProt P03372). The experiment in a line: In-cell Western (ICW) ER degradation assay in MCF-7 cells. Type of assay: cell-based. Particulars: for DC50: MCF-7, ER degradation, read-out: MCF7 DC50.
In a further assay the target is ER in T47D cells (Homo sapiens (Human), UniProt P03372). The experiment in a line: In-cell Western (ICW) ER degradation assay in T47D cells. Particulars: 16 hrs treatment; for DC50: ER degradation; for Dmax: maximal ER degradation, read-out: T47D Dmax. It is filed as cell-based.
A further assay relates to MCF-7 cells. Kind of assay: CellTiter-Glo (CTG) cell proliferation assay in MCF-7 cells. It is filed as cell-based. Particulars: Homo sapiens, MCF7, 144 h, MCF-7 cell proliferation, Day 6. The source says:
CellTiter-Glo® (CTG) Assays in MCF-7 and T47D Cell Lines.
In vitro Assay: MCF-7 and T47D CTG assay
For orientation: Cellular ATP, detected with luciferase, serves as a proxy for viable cell number.

Setting [1] is: MCF7, MCF-7, maximal ER degradation, 16 hrs treatment, read-out: MCF7 Dmax.
Where [2] appears, read: MCF7, read-out: MCF7 Dmax, MCF-7, maximal ER degradation, 16 hrs treatment.

Read-outs that look alike come from different tables or passages of the source. Bounds are passed on as bounds.

Sequence of ER in T47D cells (P03372 whole entry): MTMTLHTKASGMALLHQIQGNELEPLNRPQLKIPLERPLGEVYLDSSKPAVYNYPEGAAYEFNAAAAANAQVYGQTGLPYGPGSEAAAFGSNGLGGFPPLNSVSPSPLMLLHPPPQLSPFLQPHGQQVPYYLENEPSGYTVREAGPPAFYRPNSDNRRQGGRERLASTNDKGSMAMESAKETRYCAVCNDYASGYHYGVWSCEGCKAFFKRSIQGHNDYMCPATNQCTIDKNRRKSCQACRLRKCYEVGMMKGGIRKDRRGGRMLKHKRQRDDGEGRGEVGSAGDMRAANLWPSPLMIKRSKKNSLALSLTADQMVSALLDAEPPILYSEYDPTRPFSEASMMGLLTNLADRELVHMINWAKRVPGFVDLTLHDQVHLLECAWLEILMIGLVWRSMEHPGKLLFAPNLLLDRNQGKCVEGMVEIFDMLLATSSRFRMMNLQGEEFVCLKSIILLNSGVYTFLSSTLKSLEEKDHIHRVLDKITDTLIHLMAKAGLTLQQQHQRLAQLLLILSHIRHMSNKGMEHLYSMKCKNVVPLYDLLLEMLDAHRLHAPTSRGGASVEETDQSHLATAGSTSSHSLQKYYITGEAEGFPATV
Sequence of ER in MCF-7 cells (P03372 whole entry): as above
Sequence of CRBN/DDB1 (Q96SW2 whole entry, species assumed): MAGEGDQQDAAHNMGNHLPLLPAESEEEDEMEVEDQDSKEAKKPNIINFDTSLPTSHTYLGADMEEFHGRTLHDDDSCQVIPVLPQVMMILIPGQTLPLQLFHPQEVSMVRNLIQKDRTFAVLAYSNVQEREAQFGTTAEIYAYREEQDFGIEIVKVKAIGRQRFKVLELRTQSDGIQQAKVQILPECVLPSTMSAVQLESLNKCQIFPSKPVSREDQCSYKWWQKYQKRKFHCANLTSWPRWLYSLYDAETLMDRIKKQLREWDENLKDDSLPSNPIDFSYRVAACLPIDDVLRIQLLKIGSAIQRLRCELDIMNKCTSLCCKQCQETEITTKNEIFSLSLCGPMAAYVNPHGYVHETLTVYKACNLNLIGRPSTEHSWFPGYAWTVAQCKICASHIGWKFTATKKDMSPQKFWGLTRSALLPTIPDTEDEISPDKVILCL
Sequence of CRBN/DDB1 (Q16531 whole entry partner, species assumed): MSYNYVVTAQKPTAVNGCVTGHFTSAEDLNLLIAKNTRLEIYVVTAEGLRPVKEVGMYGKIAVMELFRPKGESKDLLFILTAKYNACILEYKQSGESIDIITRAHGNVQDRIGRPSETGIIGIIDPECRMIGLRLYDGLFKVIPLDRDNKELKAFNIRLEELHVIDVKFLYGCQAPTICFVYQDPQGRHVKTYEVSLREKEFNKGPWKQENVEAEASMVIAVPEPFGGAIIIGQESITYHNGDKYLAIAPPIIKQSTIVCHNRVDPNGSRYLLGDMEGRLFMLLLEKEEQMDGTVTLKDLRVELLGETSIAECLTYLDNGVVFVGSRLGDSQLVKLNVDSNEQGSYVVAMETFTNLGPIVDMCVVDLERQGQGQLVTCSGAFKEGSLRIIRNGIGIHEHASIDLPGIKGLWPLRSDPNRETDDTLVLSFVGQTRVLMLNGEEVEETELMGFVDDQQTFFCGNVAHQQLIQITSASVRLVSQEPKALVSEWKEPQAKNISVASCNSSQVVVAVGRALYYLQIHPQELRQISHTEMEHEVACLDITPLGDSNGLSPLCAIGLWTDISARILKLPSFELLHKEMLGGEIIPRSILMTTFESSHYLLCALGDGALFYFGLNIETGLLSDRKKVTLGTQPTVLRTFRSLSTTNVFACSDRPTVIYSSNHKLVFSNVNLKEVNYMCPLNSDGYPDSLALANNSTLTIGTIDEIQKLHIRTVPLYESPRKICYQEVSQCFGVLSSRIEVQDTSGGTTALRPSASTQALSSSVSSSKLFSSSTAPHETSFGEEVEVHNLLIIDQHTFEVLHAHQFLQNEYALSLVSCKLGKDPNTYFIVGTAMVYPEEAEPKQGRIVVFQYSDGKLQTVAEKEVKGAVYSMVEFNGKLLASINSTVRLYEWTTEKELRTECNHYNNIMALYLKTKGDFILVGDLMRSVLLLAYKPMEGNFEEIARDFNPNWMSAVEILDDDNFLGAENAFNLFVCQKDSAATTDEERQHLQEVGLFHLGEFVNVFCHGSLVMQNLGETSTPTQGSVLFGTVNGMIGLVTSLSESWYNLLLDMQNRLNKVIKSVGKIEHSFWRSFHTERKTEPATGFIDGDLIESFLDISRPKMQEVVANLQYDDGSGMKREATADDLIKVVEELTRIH

Take `COc1cc(N2CCC3(CC2)CC(CN2CCN4c5cc6c(cc5OC[C@@H]4C2)C(=O)N([C@H]2CCC(=O)NC2=O)C6)C3)ccc1[C@@H]1c2ccc(O)cc2CC[C@@H]1c1ccccc1` (single isomer, unassigned) [Compound A12]: the IC50 – broadly, the concentration that gives 50% inhibition – on CRBN/DDB1 was in the range of 50 to 500 nM; in the assay on MCF-7 cells, 10 to 100 nM. The Dmax at ER in MCF-7 cells (setting [1]) and on ER in T47D cells was above 75% in each case. Moreover, the DC50 at ER in MCF-7 cells (16 hrs treatment) and at ER in T47D cells was below 1 nM throughout.
As for `O=C1CC[C@@H](Nc2ccc(C3CCN(CC4CCC5(CC4)CN(c4ccc([C@@H]6c7ccc(O)cc7CC[C@@H]6c6ccccc6)cc4)C5)CC3)cc2)C(=O)N1` (single isomer, unassigned) [Compound A65], the values for the IC50 at CRBN/DDB1 and in the assay with MCF-7 cells were 50 to 500 nM and 10 to 100 nM, respectively. Besides, the Dmax – broadly, the greatest extent of degradation seen – on ER in MCF-7 cells (setting [1]) was 50 to 75%; at ER in T47D cells, above 75%. The 50% degradation concentration (DC50) (usually the midpoint of the concentration-degradation curve) on ER in MCF-7 cells (16 hrs treatment) is 1 to 10 nM; on ER in T47D cells, below 1 nM.
With `COc1cc(N2CCC3(CC2)CC(CN2CCC4(CC2)COc2c4cc4c(c2Cl)C(=O)N([C@H]2CCC(=O)NC2=O)C4)C3)c(F)cc1[C@@H]1c2ccc(O)cc2CC[C@@H]1c1ccccc1` [Compound A218, (S)-3-(8-chloro-1′-((7-(2-fluoro-4-((1S,2S)-6-hydroxy-2-phenyl-1,2,3,4-tetrahydro-naphthalen-1-yl)-5-methoxy-phenyl)-7-azaspiro[3.5]nonan-2-yl)methyl)-7-oxo-5,7-dihydro-2H,6H-spiro[furo[2,3-f]isoindole-3,4′-piperidin]-6-yl)piperidine-2,6-dione], the greatest degradation seen (Dmax) at ER in MCF-7 cells (setting [2]) was above 75%. Also, the DC50 on ER in MCF-7 cells (16 hrs treatment) is below 1 nM. For the same compound, the concentration for half-maximal inhibition (IC50) in the assay with MCF-7 cells was below 10 nM.
For `COc1cc(N2CCC3(CC2)CC(CN2CCC4(CC2)COc2c4cc(OC)c4c2CN([C@H]2CCC(=O)NC2=O)C4=O)C3)c(F)cc1[C@@H]1c2ccc(O)cc2CC[C@@H]1c1ccccc1` [Compound A222, (S)-3-(1′-((7-(2-fluoro-4-((1S,2S)-6-hydroxy-2-phenyl-1,2,3,4-tetrahydronaphthalen-1-yl)-5-methoxyphenyl)-7-azaspiro[3.5]nonan-2-yl)methyl)-5-methoxy-6-oxo-6,8-dihydro-2H,7H-spiro[furo[2,3-e]isoindole-3,4′-piperidin]-7-yl)piperidine-2,6-dione], in that order: above 75%, below 1 nM and below 10 nM.
The like results for `COc1cc(N2CCC(CCN3CCC4(CC3)COc3c4cc(OC)c4c3CN([C@H]3CCC(=O)NC3=O)C4=O)CC2)c(F)cc1[C@@H]1c2ccc(O)cc2CC[C@@H]1c1ccccc1` [Compound A226, (S)-3-(1′-(2-(1-(2-fluoro-4-((1S,2S)-6-hydroxy-2-phenyl-1,2,3,4-tetrahydronaphthalen-1-yl)-5-methoxyphenyl)piperidin-4-yl)ethyl)-5-methoxy-6-oxo-6,8-dihydro-2H,7H-spiro[furo[2,3-e]isoindole-3,4′-piperidin]-7-yl)piperidine-2,6-dione] were, in that order, above 75%, below 1 nM and below 10 nM.
For `COc1cc(N2CCC3(CC[C@@H](CN4CCC5(CC4)COc4c5cc(C)c5c4CN([C@H]4CCC(=O)NC4=O)C5=O)CO3)CC2)c(F)cc1[C@@H]1c2ccc(O)cc2CC[C@@H]1c1ccccc1` [Compound A227, (S)-3-(1′-(((S)-9-(2-fluoro-4-((1S,2S)-6-hydroxy-2-phenyl-1,2,3,4-tetrahydronaphthalen-1-yl)-5-methoxyphenyl)-1-oxa-9-azaspiro[5.5]undecan-3-yl)methyl)-5-methyl-6-oxo-6,8-dihydro-2H,7H-spiro[furo[2,3-e]isoindole-3,4′-piperidin]-7-yl)piperidine-2,6-dione], the greatest degradation seen (Dmax) at ER in MCF-7 cells (setting [2]) is above 75%. Further, the DC50 at ER in MCF-7 cells (16 hrs treatment) was below 1 nM. Also, the IC50 in the assay with MCF-7 cells was below 10 nM.
As for `COc1cc(N2CCC(CCN3CCN4c5cc(C)c6c(c5OC[C@H]4C3)CN([C@H]3CCC(=O)NC3=O)C6=O)CC2)c(F)cc1[C@@H]1c2ccc(O)cc2CC[C@@H]1c1ccccc1` [Compound A229, (S)-3-((R)-7-(2-(1-(2-fluoro-4-((1S,2S)-6-hydroxy-2-phenyl-1,2,3,4-tetrahydronaphthalen-1-yl)-5-methoxyphenyl)piper-idin-4-yl)ethyl)-12-methyl-1-oxo-1,3,5,5a,6,7,8,9-octahydro-2H-pyrazino[1′,2′:4,5][1,4]oxazino[2,3-e]isoindol-2-yl)-piperidine-2,6-dione], the Dmax on ER in MCF-7 cells (setting [1]) was above 75%. Besides, at ER in MCF-7 cells (16 hrs treatment), the DC50 was below 1 nM. For the same compound, the IC50 in the assay on MCF-7 cells was 10 to 100 nM.
On to `COc1cc(N2CCC3(CC[C@H](CN4CCC5(CC4)COc4c5cc(C)c5c4CN([C@H]4CCC(=O)NC4=O)C5=O)CO3)CC2)c(F)cc1[C@@H]1c2ccc(O)cc2CC[C@@H]1c1ccccc1` [Compound A230, (S)-3-(1′-(((R)-9-(2-fluoro-4-((1S,2S)-6-hydroxy-2-phenyl-1,2,3,4-tetrahydronaphthalen-1-yl)-5-methoxyphenyl)-1-oxa-9-azaspiro[5.5]undecan-3-yl)methyl)-5-methyl-6-oxo-6,8-dihydro-2H,7H-spiro[furo[2,3-e]isoindole-3,4′-piperidin]-7-yl)piperidine-2,6-dione], for which the Dmax on ER in MCF-7 cells (setting [2]) was above 75%. The DC50 on ER in MCF-7 cells (16 hrs treatment) was below 1 nM. The same compound came in with an IC50 with MCF-7 cells below 10 nM.
For `O=C1CC[C@H](N2Cc3c4c(cc(Cl)c3C2=O)C2(CCN(C[C@H]3CCC5(CCN(c6ccc([C@@H]7c8ccc(O)cc8CC[C@@H]7c7ccccc7)cc6)CC5)OC3)CC2)CO4)C(=O)N1` [Compound A231, (S)-3-(5-chloro-1′-(((R)-9-(4-((1R,2S)-6-hydroxy-2-phenyl-1,2,3,4-tetrahydronaphthalen-1-yl)phenyl)-1-oxa-9-azaspiro[5.5]undecan-3-yl)methyl)-6-oxo-6,8-dihydro-2H,7H-spiro[furo[2,3-e]isoindole-3,4′-pipcridin]-7-yl)piperidine-2,6-dione], in that order: above 75%, below 1 nM and below 10 nM.
For `COc1cc(N2CCC3(CC[C@H](CN4CCC5(CC4)COc4c5cc(Cl)c5c4CN([C@H]4CCC(=O)NC4=O)C5=O)CO3)CC2)c(F)cc1[C@@H]1c2ccc(O)cc2CC[C@@H]1c1ccccc1` [Compound A232, (S)-3-(5-chloro-1′-(((R)-9-(2-fluoro-4-((1S,2S)-6-hydroxy-2-phenyl-1,2,3,4-tetrahydronaphthalen-1-yl)-5-methoxyphenyl)-1-oxa-9-azaspiro[5.5]undecan-3-yl)methyl)-6-oxo-6,8-dihydro-2H,7H-spiro[furo[2,3-e]isoindole-3,4′-piperidin]-7-yl)piperidine-2,6-dione], in that order: above 75%, below 1 nM and below 10 nM.
For `O=C1CC[C@H](N2Cc3c4c(cc(Cl)c3C2=O)C2(CCN(C[C@@H]3CCC5(CCN(c6ccc([C@@H]7c8ccc(O)cc8CC[C@@H]7c7ccccc7)cc6)CC5)OC3)CC2)CO4)C(=O)N1` [Compound A233, (S)-3-(5-chloro-1′-(((S)-9-(4-((1R,2S)-6-hydroxy-2-phenyl-1,2,3,4-tetrahydronaphthalen-1-yl)phenyl)-1-oxa-9-azaspiro[5.5]undecan-3-yl)methyl)-6-oxo-6,8-dihydro-2H,7H-spiro[furo[2,3-e]isoindole-3,4′-piperidin]-7-yl)piperidine-2,6-dione], in that order: above 75%, below 1 nM and below 10 nM.
Turning to `COc1cc(N2CCC3(CC[C@@H](CN4CCC5(CC4)COc4c5cc(Cl)c5c4CN([C@H]4CCC(=O)NC4=O)C5=O)CO3)CC2)c(F)cc1[C@@H]1c2ccc(O)cc2CC[C@@H]1c1ccccc1` [Compound A234, (S)-3-(5-chloro-1′-(((S)-9-(2-fluoro-4-((1S,2S)-6-hydroxy-2-phenyl-1,2,3,4-tetrahydronaphthalen-1-yl)-5-methoxyphenyl)-1-oxa-9-azaspiro[5.5]undecan-3-yl)methyl)-6-oxo-6,8-dihydro-2H,7H-spiro[furo[2,3-e]isoindole-3,4′-piperidin]-7-yl)piperidine-2,6-dione], the Dmax at ER in MCF-7 cells (setting [2]) was above 75%. At ER in MCF-7 cells (16 hrs treatment), the half-maximal degradation concentration (DC50) is below 1 nM. Besides, the IC50 in the assay with MCF-7 cells was below 10 nM.
The like results for `COc1cc2c(c3c1C(=O)N([C@H]1CCC(=O)NC1=O)C3)OCC21CCN(C[C@H]2CCC3(CCN(c4ccc([C@@H]5c6ccc(O)cc6CC[C@@H]5c5ccccc5)cc4)CC3)OC2)CC1` [Compound A235, (S)-3-(1′-(((R)-9-(4-((1R,2S)-6-hydroxy-2-phenyl-1,2,3,4-tetrahydronaphthalen-1-yl)phenyl)-1-oxa-9-azaspiro[5.5]undecan-3-yl)methyl)-5-methoxy-6-oxo-6,8-dihydro-2H,7H-spiro[furo[2,3-e]isoindole-3,4′-piperidin]-7-yl)piperidine-2,6-dione] were, in that order, above 75%, below 1 nM and below 10 nM.
The like results for `COc1cc2c(c3c1C(=O)N([C@H]1CCC(=O)NC1=O)C3)OCC21CCN(C[C@@H]2CCC3(CCN(c4ccc([C@@H]5c6ccc(O)cc6CC[C@@H]5c5ccccc5)cc4)CC3)OC2)CC1` [Compound A236, (S)-3-(1′-(((S)-9-(4-((1R,2S)-6-hydroxy-2-phenyl-1,2,3,4-tetrahydronaphthalen-1-yl)phenyl)-1-oxa-9-azaspiro[5.5]undecan-3-yl)methyl)-5-methoxy-6-oxo-6,8-dihydro-2H,7H-spiro[furo[2,3-e]isoindole-3,4′-piperidin]-7-yl)piperidine-2,6-dione] were, in that order, above 75%, below 1 nM and 10 to 100 nM.

Source of the values: patent publication US20260028354A1, “TETRAHYDRONAPHTHALENE DERIVATIVES AS ESTROGEN RECEPTOR DEGRADERS” (REGENT OF THE UNIVERSITY OF MICHIGAN, priority 2022, published 2026).
